The source of these data is ChEMBL document CHEMBL5136980, “Indoleamine 2,3-dioxygenase 1 (IDO1) inhibitors and PROTAC-based degraders for cancer therapy” (Eur J Med Chem, 2022).

For data set [1], the target named is T1, Indoleamine 2,3-dioxygenase 1 (Homo sapiens, UniProt P14902). The experiment in a line: Inhibition of IDO1 (unknown origin).
The subject of the next data set is HeLa. The experiment in a line: Cytotoxicity against human HeLa cells assessed as cell viability incubated for 48 hrs by MTT assay. Format: functional, cell-based.
The target of data set [2] is T2, Protein cereblon/Indoleamine 2,3-dioxygenase 1 (Homo sapiens, UniProt P14902+Q96SW2). The experiment in a line: Protac activity at CRBN/IDO1 in human HeLa cells assessed as IDO1 protein degradation. Format: cell-based.
Target sequence in this assay (P14902 whole entry): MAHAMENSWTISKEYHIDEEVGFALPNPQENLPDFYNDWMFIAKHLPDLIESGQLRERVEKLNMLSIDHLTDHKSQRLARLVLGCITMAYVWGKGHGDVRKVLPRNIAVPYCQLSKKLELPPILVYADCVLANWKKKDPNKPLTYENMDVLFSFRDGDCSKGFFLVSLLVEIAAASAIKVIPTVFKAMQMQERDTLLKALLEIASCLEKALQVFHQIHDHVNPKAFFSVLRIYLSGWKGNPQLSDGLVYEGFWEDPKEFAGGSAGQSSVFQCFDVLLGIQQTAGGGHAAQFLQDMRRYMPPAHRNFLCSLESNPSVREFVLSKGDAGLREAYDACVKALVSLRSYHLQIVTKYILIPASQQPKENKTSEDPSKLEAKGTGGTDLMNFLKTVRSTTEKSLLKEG
Target sequence in this assay (Q96SW2 whole entry): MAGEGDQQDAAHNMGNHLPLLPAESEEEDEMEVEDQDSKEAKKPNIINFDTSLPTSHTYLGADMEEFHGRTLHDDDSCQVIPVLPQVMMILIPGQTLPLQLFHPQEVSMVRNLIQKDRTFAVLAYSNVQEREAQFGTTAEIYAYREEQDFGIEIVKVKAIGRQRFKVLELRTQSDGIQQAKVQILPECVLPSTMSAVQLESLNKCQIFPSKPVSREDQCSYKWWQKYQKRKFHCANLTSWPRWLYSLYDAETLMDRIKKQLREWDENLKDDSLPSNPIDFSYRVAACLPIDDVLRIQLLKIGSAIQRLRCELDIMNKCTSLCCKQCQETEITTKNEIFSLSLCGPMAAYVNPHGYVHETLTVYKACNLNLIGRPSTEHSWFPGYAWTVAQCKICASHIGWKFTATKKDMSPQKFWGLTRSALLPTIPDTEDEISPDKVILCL
The target of data set [3] is T2, Protein cereblon/Indoleamine 2,3-dioxygenase 1. The experiment in a line: Protac activity at CRBN/IDO1 in human HeLa cells assessed as IDO1 protein degradation relative to control. Format: cell-based.
Target sequence in this assay (P14902 whole entry, looked up): as the sequence (P14902 whole entry) above
Target sequence in this assay (Q96SW2 whole entry, looked up): as the sequence (Q96SW2 whole entry) above
The species named for the next data set is Homo sapiens. As to the kind of experiment: Ratio of IC50 for IDO1 (unknown origin) to IC50 for IDO1 in human HeLa cells. Format: cell-based.
Data set [4] addresses T1, Indoleamine 2,3-dioxygenase 1. As to the kind of experiment: Inhibition of IDO1 in IFN-gamma stimulated human HeLa cells in presence of heme measured after 20 hrs by heme-competitive binding assay. In kind it is cell-based.
The next data set has as its system Ehrlich. The experiment in a line: Antitumor activity against mouse Ehrlich ascites carcinoma allografted in Swiss albino mouse assessed tumor growth inhibition by measuring CD8+ T cells relative to control. In kind it is functional.
For data set [5], the target named is T1, Indoleamine 2,3-dioxygenase 1. As to the kind of experiment: Inhibition of IDO1 (unknown origin) using L-tryptophan incubated for 30 mins by microplate reader method.
The nature of data set [6]: Oral bioavailability in ICR mouse 30 mg/kg measured after 0.0833 to 24 hrs by liquid chromatography/tandem mass spectrometric analysis. The conditions noted are these: in vivo, time 0.0833-24 hrs. Format: ADME, organism-based.

A value given as a limit tells only on which side of the number the result lay.

T1 sequence (P14902 whole entry): as the sequence (P14902 whole entry) above

Regarding `O=C1CCC(N2C(=O)c3cccc(NCCOCCOCCOCCOCCOCCOCCOCCNCCNc4nonc4/C(=N/O)Nc4cccc(Br)c4)c3C2=O)C(=O)N1` (configuration not stated), the values for the IC50 (in data set [1]; in the data set with HeLa) were 1070 nM and 37.4 µM, respectively. Further, the DC50 in data set [2] amounted to 2840 nM. The Emax in [3] is 93%.
In [1], `OC(CC1c2cc(F)ncc2-c2cncn21)C1CCCCC1` (configuration not stated) had an IC50 below 100 nM.
`Clc1ccc(Nc2cn[nH]n2)cc1`: in the data set filed under Homo sapiens, the Ratio IC50 was above 500.
Turning to `CCC(C(=O)Nc1ccc(Cl)cc1)[C@H]1CC[C@H](Oc2ccnc3ccccc23)CC1` (some centres not stated), in [1], the IC50 is above 50 nM.
`C[C@@H](NC(=O)c1ccc(Cl)cc1)[C@H]1CC[C@@H](c2ccnc3ccc(F)cc32)CC1`: in data set [1], the IC50 was below 50 nM.
Turning to `C[C@@H](C(=O)Nc1ccc(C#N)cc1)[C@H]1CC[C@@H](c2ccnc3ccc(F)cc32)CC1`, the IC50 in data set [4] was below 100 nM.
The molecule `CC(C(=O)Nc1ccc(Cl)cc1)C1CCC(c2ccnc(C(F)(F)F)c2)CC1` (configuration not stated) yielded an IC50 in data set [1] below 50 nM.
The molecule `Cn1cc(-c2cc(F)c(NC(=O)NCC3c4ccccc4-c4cncn43)cc2F)cn1` (configuration not stated) displayed an IC50 in data set [1] of 16 nM.
The molecule `O[C@@H](C[C@H]1c2ccccc2-c2cncn21)c1cc2ccoc2cc1F` had an IC50 in data set [1] below 200 nM.
In the data set on Ehrlich, `NC(=O)c1n[nH]nc1-c1ccc(F)c(F)c1` came in with a TGI of 96%.
In turn, `CC(C)Oc1ccc(S(=O)(=O)NC2CCCc3cnccc32)cc1` (configuration not stated) came in with a 50% inhibitory concentration (IC50) in [1] below 50 nM.
Consider `C[C@@H](NS(=O)(=O)c1cccc(Cl)c1)[C@H]1CC[C@@H](c2ccnc3ccc(F)cc32)CC1`, for which, in [1], the IC50 was below 50 nM.
Same read-out and setting: the figure for `CC(C(=O)Nc1ccc(Cl)cc1)[C@H]1CC[C@H](Oc2ccnc(C(F)(F)F)c2)CC1` (some centres not stated) is above 250 nM; for `CC(C(=O)Nc1ccc(Cl)cc1)N1CCC(Oc2ccnc3ccc(F)cc23)CC1` (configuration not stated) it is above 50 nM.
On the same count and under the same terms, the figure for `Cn1cc(-c2ccc(NC(=O)N3CCC(C(=O)/C(=N/O)Nc4ccc(F)c(Br)c4)CC3)cc2)cn1` is 4 nM.
On the same count and under the same terms, the figure for `COC1CN(CCNc2nc3c(F)c(F)cc(/C(=N/O)Nc4cccc(Br)c4)c3[nH]2)C1` is 111 nM; for `O=C(Nc1ccc(Cl)cc1)N[C@H]1CC[C@H](c2ccnc3ccc(F)cc32)CC1` it is below 50 nM.
With `CC1=CCC[C@@H](C)[C@]1(C)C[C@]1(C)[C@@H](O)CC[C@]2(C)[C@@]3(C)CC[C@]4(C)c5c(C(O)C(=O)O)ccc(O)c5C[C@H]4[C@]3(C)CC[C@]21C` (some centres not stated), the IC50 in [5] came out at 240 nM.
`O=S(=O)(NCCCOc1ccccc1-c1c[nH]cn1)C(F)(F)F` showed a bioavailability in data set [6] of 96%.
On to `O=S(=O)(Nc1cccc2cnccc12)c1ccc2c(c1)OCCO2`, for which the IC50 in data set [1] is above 50 nM.
The same measure, in the same setting: the figure for `N#Cc1ccc(NC(=O)NCC2c3ccccc3-c3cncn32)cc1` (configuration not stated) is below 50 nM; for `O/N=C(/CCC1CCCCC1)Nc1cccc(Cl)c1` it is below 1 nM.
Same read-out and setting: under `Nc1nonc1/C(=N/O)N1Cc2ccccc2C1` stands 1.57 nM; under `OC1CCC(C(F)(F)CC2c3c(F)cccc3-c3cncn32)CC1` (configuration not stated), below 100 nM.
